One series relates to HBV. Briefly: Anti-HBV activity in the AD-38 cell line using real-time quantitative PCR. As to conditions: against HBV; for EC50: AD-38 cells, 4 days, read-out: EC50; for inhibition, %: concentration not given. The class given is cell-based. The protocol: Anti-HBV activity of prodrugs of general formula 1 determination in the AD-38 cell line using a real-time quanitative PCR. a) Cell cultures. HepG2 AD38 cell line, harboring an integrated over-the-length HBV genomic DNA (Lander S, et. al, Antimicrobal Agents and Chemotherapy, 1997, pg. 1715-1720) were provided by Dr. C. Seeger, Fox Chase Cancer Center, Philadelphia, Pa.). Cells were grown in complete media (DMEM/F12 with 2 mM L-Glutamine (Thermo Scientific, Cat #11320033), 10% Fetal Bovine Serum (ThermoFisher Scientific, Cat#), 1% Antibiotic-antimitotic solution (ThermoFisher Scientific, Cat#15240096), and 0.3 μg/ml tetracyclin (Sigma, Cat # T7660-5G). Cells were plated onto Corning Biocoat 96-well plates (Corning, Cat #356407) in 225 ul of complete media (without teracyclin), 20000 cells/well. The prodrugs of general formula 1 were dissolved first in DMSO (Sigma cat. D2650), then in DMEM/F12 and 9 serial 3× dilutions were prepared and added to cells in 22.5 μl. The final prodrugs concentrations ranged from 10 μM to 1 nM. Cells grown in the presence of tetracyclin were used as a positive control, as HBV replication in this cell line is turned off by thetracyclin. Cell plates were incubated for 4 days at 37 C, 5% CO2. b) HBV DNA isolation. After 4 days, viral DNA was isolated from culture supernatants using PureLink® Pro 96 Genomic DNA Purification Kit (ThermoFisher Scientific, Cat # K183104A), according to manufacturer's recommendations. Eluted DNA samples were stored at −20 C. c) Quantitative real-time PCR (qPCR). PCR was performed on the CFX96™ Real-Time System (Bio-Rad, Hercules, Calif.) using AmpliTaq Gold® DNA Polymerase (Applied Biosystems®).
Ct values (cycle threshold) were obtained for each prodrug sample and normalized to untreated cells, according to formula E=(1/(1+100%))̂(Ct[studied prodrug sample]−Ct[K-]), where E is a normalized expression of studied gene, Ct[K-] and Ct[studied prodrug sample] are Ct values of untreated cells and studied prodrug sample. Inhibition curves were obtained and EC50 values were calculated using the Graph Prizm software (Table 3).

For the next series, the system named is HepG2 AD38 cell line. The series can be described thus: Cytotoxicity (viability, CC50) reported with the anti-HBV test. The class given is cell-based. The following applies: for viability, %: concentration not given.
In another series the test system is HCV replicon. As to conditions: cited from earlier work.

By EC50 is commonly meant the concentration that produces a half-maximal response. As a reminder, the CC50 is the concentration that lowers cell viability or growth by half. Low values mean greater toxicity to the cells, high ones lower toxicity to the cells. As a reminder, the EC90 is the point of the concentration-response curve where the effect stands at 90%.

With `C=C1[C@H](CO[P@@](=O)(N[C@@H](C)C(=O)O[C@@H](C)C(=O)OC(C)C)Oc2ccccc2)[C@@H](O)C[C@@H]1n1cnc2c(=O)[nH]c(N)nc21` [1.2(50), (S)-1-isopropoxycarbonyl-ethyl (S)-2-{(S)-[(1R,3S,5S)-3-(2-amino-6-oxo-1,6-dihydro-purin-9-yl)-5-hydroxy-2-methylene-cyclopentylmethoxy]-phenoxy-phosphorylamino}-propanoate], in the series on HBV, the EC50 was 40 ± 30 nM and the “inhibition, %” value is listed as 100%. Besides, in the series on HepG2 AD38 cell line, the CC50 was more than 30000 nM and the “viability, %” value was 95%.

For the compound `CC(C)OC(=O)[C@H](C)OC(=O)[C@H](C)N[P@](=O)(OC[C@@H]1O[C@H](n2ccc(N)nc2=O)CS1)Oc1ccccc1` [1.2(92), (S)-1-isopropoxycarbonyl-ethyl (S)-2-{(S)-[(2R,5S)-5-(4-amino-2-oxo-2H-pyrimidin-1-yl)-[1,3]oxathiolan-2-ylmethoxy]-phenoxy-phosphorylamino}-propanoate], in the series with HBV, the 50% effective concentration (EC50) was 800 ± 610 nM and the “inhibition, %” value is on record as 86%. Further, in the series on HepG2 AD38 cell line, the CC50 is more than 30000 nM and the “viability, %” value came to 103%.

With `CC(C)OC(=O)[C@H](C)OC(=O)[C@H](C)N[P@](=O)(OC[C@@H]1O[C@H](n2cc(F)c(N)nc2=O)CS1)Oc1ccccc1` [1.2(93), (S)-1-isopropoxycarbonyl-ethyl (S)-2-{(S)-[(2R,5S)-5-(4-amino-5-fluoro-2-oxo-2H-pyrimidin-1-yl)-[1,3]oxathiolan-2-ylmethoxy]-phenoxy-phosphorylamino}-propanoate], in the series on HBV, the EC50 is 40 ± 10 nM and the “inhibition, %” value is reported as 93%. Also, in the series with HepG2 AD38 cell line, the CC50 was more than 30000 nM and the “viability, %” value turned out to be 94%.

`C=CCOC(=O)[C@H](C)N[P@](=O)(OC[C@@H]1O[C@H](n2ccc(=O)[nH]c2=O)CS1)Oc1ccccc1` [1.2(94), allyl (S)-2-{(S)-[(2R,5S)-5-(2,4-dioxo-3,4-dihydro-2H-pyrimidin-1-yl)-[1,3]oxathiolan-2-ylmethoxy]-phenoxy-phosphorylamino}-propanoate]: in the series on HBV, the EC50 stood at 300 ± 90 nM and the “inhibition, %” value was found to be 99%. For the same compound, in the series on HepG2 AD38 cell line, the CC50 was more than 30000 nM and the “viability, %” value worked out at 101%.

Regarding `COCCOC(=O)[C@H](C)N[P@](=O)(OC[C@@H]1O[C@H](n2ccc(=O)[nH]c2=O)CS1)Oc1ccccc1` [1.2(96), 2-methoxy-ethyl (S)-2-{(S)-[(2R,5S)-5-(2,4-dioxo-3,4-dihydro-2H-pyrimidin-1-yl)-[1,3]oxathiolan-2-ylmethoxy]-phenoxy-phosphorylamino}-propanoate], in the series with HBV, the EC50 came to 320 ± 80 nM and the “inhibition, %” value is given as 96%. Moreover, in the series on HepG2 AD38 cell line, the CC50 was more than 30000 nM and the “viability, %” value is 89%.

With `C=CCOC(=O)[C@H](C)N[P@](=O)(OC[C@@H]1O[C@H](n2cc(F)c(=O)[nH]c2=O)CS1)Oc1ccccc1` [1.2(97), allyl (S)-2-{(S)-[(2R,5S)-5-(5-fluoro-2,4-dioxo-3,4-dihydro-2H-pyrimidin-1-yl)-[1,3]oxathiolan-2-ylmethoxy]-phenoxy-phosphorylamino}-propanoate], in the series with HBV, the EC50 turned out to be 370 ± 50 nM and the “inhibition, %” value was 99%. Also, in the series with HepG2 AD38 cell line, the 50% cytotoxic concentration (CC50) is more than 30000 nM and the “viability, %” value is 91%.

Turning to `CC(C)(CO)C(=O)SCCOP(=O)(COC[C@H]1OC(n2cnc3c(=O)[nH]c(N)nc32)[C@](C)(O)[C@@H]1O)NCc1ccccc1` (stereo partly drawn) [IDX-184], the EC50 with HCV replicon is 400 nM.

On to `COc1nc(N)nc2c1ncn2[C@@H]1O[C@H](COP(=O)(N[C@@H](C)C(=O)OC(C)C)Oc2ccccc2)[C@@H](O)[C@@]1(C)F` (stereo partly drawn) [PSI-353661], for which, in the series with HCV replicon (replicon assay), the EC90 was 8 nM. Also, in the series on HCV replicon (versus β-D-2′-deoxy-2′-R-fluoro-2′-β-C-methylguanosine), the “increase in potency compared to the guanosine analogue” value is reported as more than 1000 fold.

The values are drawn from patent publication US20180030080A1, “Phosphoramidate nucleoside prodrug for treating viral diseases and cancer, processes for their preparation and their use” (ASAVI, LLC, priority 2016, published 2018).
